{
  "source": "patent US7357913B2",
  "about": "“Methods for detecting, prognosing, or monitoring a disorder by comparing relative flux rates of two or more biological molecules in vivo” (The Regents of the University of California, priority 2003, dated 2008)",
  "key": {"[1]": {"tested_on": "liver collagen", "assay": "Liver collagen synthesis (2H into hydroxyproline) after CCl4", "type": "in vivo, mouse", "description": "Liver collagen synthesis was measured concurrently (i.e., simultaneously) with de novo DNA synthesis in the same CCl4-treated SJV mice. Collagen was purified from 10 mg of fresh total liver homogenate as follows: using a Polytron homogenizer, collagen was isolated from soft tissue by homogenizing in 0.5 mL 100 mM NaOH. Under these conditions, collagen remains insoluble while most other proteins are readily dissolved. After centrifugation at 7,000 ×g for 10 minutes at 4° C., the supernatant was discarded. The pellet was washed briefly with 2 mL H2O and solubilized in reducing Laemmli sample buffer (Bio-Rad, Hercules, Calif.) after boiling for 3 minutes. The dissolved material was size-fractionated by SDS-PAGE. […]\nAcetone precipitated total liver protein and PVDF-bound collagen were hydrolyzed by treating with 6 N HCl, 16 hours at 110° C. […] Hydroxyproline was analyzed on a DB225 GC column, starting temp 100° C. increasing 10° C./min to 220° C. with selected ion monitoring of m/z 352,353.\nHydroxyproline is a molecule of interest and is measured as OH-proline, the molecule being essentially unique to collagen. Because of this fact, total liver protein hydrolysate can be derivatized and the ^2H enrichment of hydroxyproline determined by GC/MS as described, supra. […]"}, "[2]": {"tested_on": "total liver cell", "assay": "Total liver cell proliferation (DNA synthesis) after CCl4", "type": "in vivo, mouse", "procedure": "SVJ mice were injected 2× weekly with 1.0 ml/kg or 0.25 mL/kg of CCl4 or vehicle for up to 4 weeks Cell proliferation was measured at 2, 7, 14, 21 and 28 days of ^2H2O administration and CCl4 treatment using the methods of the present invention as described, supra."}, "[3]": {"assay": "Body water 2H2O enrichment in rats", "type": "in vivo, rat", "conditions": "rats maintained on 4% 2H2O in drinking water after i.p. priming bolus", "description": "^2H2O labeling protocols in rodents consisted of an initial intraperitoneal priming bolus to 2.0-2.5% body water enrichment. The priming dose of ^2H2O (100%) was given to the rats (e.g., for a 225 g rat, 2% of 135 ml, or 2.7 ml, given in divided doses 1 hour apart) based on estimated 60% body weight as water, followed by administration of 4% ^2H2O in the drinking water. The 4% enrichment of ^2H2O in drinking water was chosen as a convenient dose that produces sufficient enrichments in biosynthetic products of interest and has no known toxicities. ^2H2O (70% and 100%) was purchased commercially from Cambridge Isotopes (Andover, Mass.). Drinking was ad-libitum. Rats were sacrificed by CO2 asphyxiation.\nBody water ^2H2O enrichments were measured serially. The steady state body ^2H2O enrichments attained in rats maintained on 4% ^2H2O in drinking water were approximately 3.0% and were stable over time in individual animals."}, "[4]": {"conditions": "human, in vivo, po", "description": "(§1) The ^2H2O was administered orally. The initial priming dose was carried out in the General Clinical Research Center (GCRC) of SF General Hospital. Subjects received a total of 350-400 mL of ^2H2O in the GCRC, given as divided doses over the course of 18-21 hours (70 mL of 70% ^2H2O, given every 3-4 hours), to achieve about 1.0% enrichment in the body water pool. The ^2H2O was purchased from-Isotec, Inc. (Miamisburgh, Ohio) and dispensed in sterile containers. Subjects then took 50 mL of 70% ^2H2O three times a day for 5 days, then 35-50 mL twice-a-day for the remainder of the 8-10 week labeling protocol. This protocol achieves near-plateau body ^2H2O enrichments (1.5-2.0%, see below) within 5-7 days in most subjects and was well-tolerated. Subjects received the ^2H2O as individual aliquots (35-50 mL of 70% ^2H2O) in plastic vials, which were stored in the refrigerator.\n^2H2O enrichments in body water were measured from plasma or urine. A 15-20 μL sample was reacted in an evacuated GC vial with calcium carbide to produce acetylene. The acetylene gas was then transferred with a syringe and injected into an evacuated GC vial containing 10% bromine in carbon tetrachloride and incubated at room temperature for 2 hours to produce tetrabromoethane. […] The tetrabromoethane, containing hydrogen atoms from body H2O, was then analyzed by GC/MS."}, "[5]": {"assay": "Food intake and body weight under 2H2O treatment in mice", "type": "in vivo, mouse", "conditions": "ca. 2% body water enrichment then 4% 2H2O drinking water, 21 days", "description": "Mice were injected with ^2H2O (deuterated water) at a dose to achieve approximately 2% enrichment in the body water pool. The normal drinking water was then replaced with water enriched to 4% ^2H2O. ^2H2O treatment had no impact on food intake or body weight. Twenty-one days following the start of ^2H2O administration, mice were fasted for four hours, anesthetized with isoflurane and exsanguinated via heart puncture. When possible, urine was collected at the same time."}, "[6]": {"assay": "Tolerability of oral 2H2O labeling protocol in human subjects", "type": "in vivo", "conditions": "8-10 week labeling protocol", "description": "as §1"}, "[7]": {"tested_on": "EMT7 mouse mammary carcinoma cells", "assay": "Tumor cell proliferation in EMT7 tumor-bearing mice, Gem and HU", "type": "in vivo", "conditions": "female balb/C nu/nu mice, EMT7 tumors; Gem 125 mg/kg every other day, HU 500 mg/kg daily; 5 days", "procedure": "Female balb/C nu/nu mice were implanted subcutaneously with approximately 106 EMT7 mouse mammary carcinoma cells in matrigel. Tumors were allowed to reach ca.1500 mm^3 in size. Mice were labeled with ^2H2O and treated with either 125mg/kg gemzar (gemcitabine or Gem) or 500 mg/kg hydroxyurea (HU). Gem was administered every other day; HU daily; and control saline daily. At the end of 5 days tumors were removed and cell proliferation was measured as described, supra."}, "[8]": {"tested_on": "bone marrow cells", "assay": "Bone marrow cell proliferation (de novo DNA synthesis, 2H2O labeling), gemcitabine study", "type": "in vivo, mouse", "conditions": "male balb/C nu/nu mice with SW1573, increasing doses every other day, 5 days", "description": "(§2) Male balb/C nu/nu mice were implanted subcutaneously with non-small cell lung carcinoma cells (SW1573) cells in matrigel. Mice were labeled with 2H2O and treated with increasing doses of gemcitabine (Gem), administered every other day (as shown in FIG. 9). After 5 days, tumor, colon and bone marrow were removed using techniques well known in the art, and as described, supra. Cell proliferation was measured as described, supra. […] De novo DNA synthesis from all three cell types was measured concurrently using the methods of the present invention. Briefly, heavy water (^2H2O) is administered to living organisms (8% ^2H2O in drinking water). DNA is isolated, hydrolyzed to free dNs, and deuterium incorporation into the deoxyribose (dR) moiety of purine and pyrimidine dNs is measured by gas chromatography/mass spectrometry (GC/MS) as described, supra."}, "[9]": {"tested_on": "colonocytes", "assay": "Colonocyte proliferation (de novo DNA synthesis, 2H2O labeling), gemcitabine study", "type": "in vivo, mouse", "conditions": "male balb/C nu/nu mice with SW1573; for colon cell (colonocyte) proliferation: increasing doses every other day, 5 days", "description": "as §2"}, "[10]": {"tested_on": "non-small cell lung carcinoma cells (SW1573)", "assay": "Tumor cell proliferation (de novo DNA synthesis, 2H2O labeling) in SW1573 xenograft mice, gemcitabine", "type": "in vivo, human", "conditions": "male balb/C nu/nu mice, SW1573 s.c. in matrigel, increasing doses every other day, 5 days", "description": "as §2"}, "[11]": {"tested_on": "adipose tissue", "assay": "Adipose tissue dynamics (TG synthesis, de novo lipogenesis, adipocyte proliferation) in leptin treated ob/ob mice", "type": "in vivo, mouse", "description": "Four week old, female, C57/b16j mice (Jackson Labs Bar Harbor, […].) were divided into four groups: C57/b16j^+/? controls (con), ad libitum fed C57/b16j^lep-/lep-(ob/ob), leptin treated ob/ob (ob-lep) and food restricted ob/ob (ob-r). All mice were housed individually in hanging wire cages and given free access to water. The light cycle was on from noon to midnight and mean temperature was 73° F. Diets were from a purified formula with 1 g “dustless” pellets used for the ad lib fed animals and 45 mg for the food restricted ob/ob mice (Bio Serv, Frenchtown, N.J.). Mice were given 3 days to acclimate to the environment, during which time some weight loss was observed. After the acclimation period, food restriction or leptin treatment was begun and food intake and body weights were measured periodically. […]\nThe percent of TG newly synthesized during the labeling period was calculated based on the precursor-product relationship, as described supra, using body water enrichment to estimate the maximal or asymptotic enrichment in TG-glycerol. The relationship between body water and the maximal TG-glycerol enrichment has been determined through combinatorial analysis (mass isotopomer distribution analysis MIDA) and by measurement of 100% replaced TG pools after long-term ^2H2O labeling. […] The fraction of TG which is newly synthesized is then calculated as: Fractional synthesis (f)=EM1/A1^∞. […]"}},
  "note": "“Also recorded” adds a separate entry of the source.",
  "data": [
    {"molecule": "ClC(Cl)(Cl)Cl", "note": "[CCl4, carbon tetrachloride]", "values": [
      {"measurement": "liver collagen synthesis relative to vehicle control, high dose", "setting": "[1]; high dose of CCl4 (1.0 ml/kg 2x weekly)", "result": "significant collagen synthesis occurred only at the highest dose; also recorded: increased"},
      {"measurement": "liver collagen synthesis relative to vehicle control, low dose", "setting": "[1]; low dose of CCl4 (0.25 mL/kg 2x weekly)", "result": "no effect"},
      {"measurement": "new liver cells present", "setting": "[2]; after 4 weeks of repeated CCl4 dosing", "result": "~100", "unit": "%"},
      {"measurement": "total liver cell proliferation relative to vehicle control", "setting": "[2]; mice injected 2x weekly, both doses (1.0 ml/kg and 0.25 mL/kg), up to 4 weeks", "result": "significantly increased; also recorded: significant cell proliferation occurred at both doses"}
    ]},
    {"molecule": "[2H]O[2H]", "note": "[^2H2O]", "values": [
      {"measurement": "steady state body 2H2O enrichment", "setting": "[3]", "result": "approximately 3.0%"},
      {"measurement": "near-plateau body 2H2O enrichment", "setting": "[4]", "result": "1.5-2.0%"},
      {"measurement": "time to near-plateau body 2H2O enrichment", "setting": "[4]", "result": "5 to 7", "unit": "days"},
      {"measurement": "impact on food intake or body weight", "setting": "[5]", "result": "no impact"},
      {"measurement": "tolerability of 2H2O protocol", "setting": "[6]", "result": "well-tolerated"}
    ]},
    {"molecule": "NC(=O)NO", "note": "[HU, hydroxyurea]", "values": [
      {"measurement": "tumor cell proliferation relative to saline control", "setting": "[7]", "result": "caused reductions; also recorded: decreased"}
    ]},
    {"molecule": "Nc1ccn([C@@H]2O[C@H](CO)[C@@H](O)C2(F)F)c(=O)n1", "note": "[Gem, gemcitabine]", "values": [
      {"measurement": "bone marrow cell proliferation", "setting": "[8]", "result": "inhibits"},
      {"measurement": "bone marrow cell proliferation", "setting": "[8]; listed as gemcitabine", "result": "inhibited in tumor and bone marrow cells in a dose-response manner"},
      {"measurement": "colon cell (colonocyte) proliferation", "setting": "[9]", "result": "relatively little effect"},
      {"measurement": "colon cell (colonocyte) proliferation", "setting": "[9]; listed as gemcitabine", "result": "little inhibition"},
      {"measurement": "colonocyte proliferation at the lower experimental doses", "setting": "[9]; lower experimental doses", "result": "may have a stimulatory effect"},
      {"measurement": "tumor cell proliferation", "setting": "[10]", "result": "inhibits"},
      {"measurement": "tumor cell proliferation", "setting": "[10]; listed as gemcitabine", "result": "inhibited in tumor and bone marrow cells in a dose-response manner"},
      {"measurement": "tumor cell proliferation relative to saline control", "setting": "[7]", "result": "caused reductions; also recorded: decreased"}
    ]},
    {"molecule": "leptin: murine leptin (Amgen) infused subcutaneously by osmotic pump (protein, UniProt P41160 22-167, looked up) Leptin: VPIQKVQDDTKTLIKTIVTRINDISHTQSVSAKQRVTGLDFIPGLHPILSLSKMDQTLAVYQQVLTSLPSQNVLQIANDLENLRDLLHLLAFSKSCSLPQTSGLQKPESLDGVLEASLYSTEVVALSRLQGSLQDILQQLDVSPEC", "values": [
      {"measurement": "TG retained (body fat balance)", "setting": "[11]; leptin treated ob/ob mice", "result": "body fat was lost"},
      {"measurement": "effect on de novo lipogenesis, adipogenesis and triglyceride synthesis in adipose tissue", "setting": "[11]; ob/ob mice, murine leptin 2 μg/day s.c. osmotic pump, 21 days 2H2O", "result": "influenced all three pathways similarly"}
    ]}
  ]
}
